The subject of one assay is MGM-1. The assay is described as follows: Alternative pathway D synthesis in cells treated with FeSO4, or with Ab with or without Vitamin E (TLC, RIA). It is filed as cell-based, human. As to conditions: MGM-1, 50 mM Aβ, vs control, p < 0.01. On the procedure:
Alternative Pathway: To determine the amount ofD synthesized by the alternative pathway cells were treated as previously described. (15). In brief, cells were washed and oligodendrocytes and astrocytes were incubated with increasing concentrations of FeSO4 in serum free media, with and without SU 10603 (10 mM); neurons were incubated in serum free media containing 5 mM P plus FeSO4 with and without 10 mM SU 10603. After two hours, cells and media were homogenized and extracted as described above. Extracts were run on C 18 TLC plates (Whatman, Clifton, NJ) with a mobile phase of 95% methanol (v/v); radiolabeled standards for P, progesterone, and D were run on each plate, and appropriate steroid fractions were collected for each sample. TLC fractions were extracted with 2 ml diethyl ether (Fluka, New York) and evaporated. TLC extracts were assayed by specific radioimmunoassay (RIA). […]
RIA using antibodies specific for each steroid (ICN Pharmaceuticals, Costa Mesa, CA Mesa) was used to measure P, progesterone and D levels. The data were analyzed using the IBM-PC RIA Data Reduction Program (version 4.1) from Jaffe and Associates (Silver Spring, MD). Levels of β-amyloid species in AD and control brain samples were analyzed using 4G8 (Senetex PLC, Napa, CA), a monoclonal antibody to β-amyloid peptide that recognizes amino acids 17-24. […]

The subject of the next assay is MGM-1 human glioma cells. The assay is described as follows: ROS measurement by 2,7-DCF fluorescence. It is filed as cell-based. As to conditions: MGM-1, 50 mM Aβ, vs control, p < 0.01. How it is done:
β-Amyloid Regulation of the Alternative Pathway: MGM-1 cells were plated on 96 well (~5,000 cells/well, for ROS measurements) or 24 well (~15,000 cells/well, for D measurements) plates (Corning Costar, Acton, MA). At the same time, 1 mg Ab (Ab (1-42), AnaSpec Inc., San Jose, CA) was dissolved in 0.5 ml serum-free media and incubated at 4C for aggregation. 24 hours later, cells were incubated in DMEM with 10% fetal bovine serum and […] or […] and 10 mM Vitamin E (Sigma, St. Louis, MO). Control samples were incubated in DMEM with 10% FBS. Cells were incubated at 37C and 6% CO2 for at least 12 hours and processed for ROS generation (see below) or D synthesis as described above for the alternative experiments.
Treatment media was removed and the cells were washed with PBS. The fluorescent probe 2,7- dichlorofluorescin diacetate (2,7-DCF, Molecular Probes, Inc., Eugene, OR) was used to measure levels of oxidative stress (48). Cells were incubated with […] 2,7-DCF, fluorescence was measured at 485nm/535nm using the Victor^2 Multilabel Counter (EG&G Wallac, Gaithersburg, MD) and values of cellular fluorescence were obtained.

Here are results for one substance from EP1254251B1, “NEUROSTEROIDS AS MARKERS FOR ALZHEIMER'S DISEASE” (Georgetown University, priority 2000, dated 2001).

“Ab: Ab (1-42), AnaSpec Inc.; β-amyloid, a component of Alzheimer's disease plaques”: the D levels result with MGM-1 is “increased D levels significantly”. Also, the “2,7-DCF fluorescence (ROS)” value in the assay on MGM-1 human glioma cells is “significant increase”.
